From PubChem BioAssay AID1963439 (Molecular Pharmacology Branch, DTP, NCI, 2024)

Test system: NCI-H196 complex spheroids with HUVEC/MSC, growth % T/C
Experiment: Anticancer human tumor NCI-H196 cell line growth inhibition [Asc];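 note: spheroids exposed to compound for 7 days before measurement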;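 for viability, T/C: 100% = DMSO vehicle control wells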
Details: for IC50: curve of first compound; for viability, T/C: stronger effect = lower value
In short: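 Stromal components (HUVEC and hMSC) are co-assembled with the cancer cells into multicellular spheroids. Drugs are then added singly or paired, at concentrations falling by half-log increments from a clinically achievable maximum, capped at 10 microM without known Cmax.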

[1] = second compound 0.1 µM, first compound 0.0316 µM
[2] = second compound 0.1 µM, first compound 0.1 µM
[3] = second compound 0.1 µM, first compound 0.316 µM
[4] = second compound 0.1 µM, first compound 1 µM
[5] = second compound 0.316 µM, first compound 0.0316 µM
[6] = second compound 0.316 µM, first compound 0.1 µM
[7] = second compound 0.316 µM, first compound 0.316 µM
[8] = second compound 0.316 µM, first compound 1 µM
[9] = second compound 1 µM, first compound 0.0316 µM
[10] = second compound 1 µM, first compound 0.1 µM
[11] = second compound 1 µM, first compound 0.316 µM
[12] = second compound 1 µM, first compound 1 µM
[13] = second compound 3.16 µM, first compound 0.0316 µM
[14] = second compound 3.16 µM, first compound 0.1 µM
[15] = second compound 3.16 µM, first compound 0.316 µM
[16] = second compound 3.16 µM, first compound 1 µM
[17] = second compound 10 µM, first compound 0.0316 µM
[18] = second compound 10 µM, first compound 0.1 µM
[19] = second compound 10 µM, first compound 0.316 µM
[20] = second compound 10 µM, first compound 1 µM

Q: Which results are given for `C#Cc1c(F)ccc2cc(O)cc(-c3ncc4c(N5CC6CCC(C5)N6)nc(OCC56CCCN5CC(F)C6)nc4c3F)c12` (stereo not given) + Cc1c(S(C)(=O)=O)c(-c2cc(F)cc(N3CCN(c4ccc(NS(=O)(=O)c5ccc(NC(CCN6CCC(C(=O)OCCCP(=O)(O)O)CC6)CSc6ccccc6)c(S(=O)(=O)C(F)(F)F)c5)cc4)CC3)c2)c(-c2ccc(Cl)cc2)n1C(C)C?
A: IC50 (second compound 0.1 µM): > 10000 nM; IC50 (second compound 0.316 µM): > 10000 nM; IC50 (second compound 1 µM): > 10000 nM; IC50 (second compound 3.16 µM): > 10000 nM; IC50 (second compound 10 µM): > 10000 nM; viability, T/C [1]: 92.8%; viability, T/C [2]: 93%; viability, T/C [3]: 98.2%; viability, T/C [4]: 98.1%; viability, T/C (second compound 0.1 µM, first compound 3.16 µM): 94.2%; viability, T/C (second compound 0.1 µM, first compound 10 µM): 93.5%; viability, T/C [5]: 98.3%; viability, T/C [6]: 93.3%; viability, T/C [7]: 88.8%; viability, T/C [8]: 97.8%; viability, T/C (second compound 0.316 µM, first compound 3.16 µM): 94.8%; viability, T/C (second compound 0.316 µM, first compound 10 µM): 88.1%; viability, T/C [9]: 88.9%; viability, T/C [10]: 87.7%; viability, T/C [11]: 90.8%; viability, T/C [12]: 89.2%; viability, T/C (second compound 1 µM, first compound 3.16 µM): 93.7%; viability, T/C (second compound 1 µM, first compound 10 µM): 83.7%; viability, T/C [13]: 84.4%; viability, T/C [14]: 86.7%; viability, T/C [15]: 81.3%; viability, T/C [16]: 75.5%; viability, T/C (second compound 3.16 µM, first compound 3.16 µM): 78.5%; viability, T/C (second compound 3.16 µM, first compound 10 µM): 70.1%; viability, T/C [17]: 71.8%; viability, T/C [18]: 77.8%; viability, T/C [19]: 82.7%; viability, T/C [20]: 80.4%; viability, T/C (second compound 10 µM, first compound 3.16 µM): 71.2%; viability, T/C (second compound 10 µM, first compound 10 µM): 58%

Q: What does the source list for `CNC(C)C(=O)NC1CN(S(=O)(=O)c2cccc(S(=O)(=O)N3CCC4CCC(C(=O)NC(c5ccccc5)c5ccccc5)N4C(=O)C(NC(=O)C(C)NC)C3)c2)CCC2CCC(C(=O)NC(c3ccccc3)c3ccccc3)N2C1=O` (stereo not given) + Cc1c(S(C)(=O)=O)c(-c2cc(F)cc(N3CCN(c4ccc(NS(=O)(=O)c5ccc(NC(CCN6CCC(C(=O)OCCCP(=O)(O)O)CC6)CSc6ccccc6)c(S(=O)(=O)C(F)(F)F)c5)cc4)CC3)c2)c(-c2ccc(Cl)cc2)n1C(C)C?
A: IC50 (second compound 0.1 µM): < 3.16 nM; IC50 (second compound 0.316 µM): < 3.16 nM; IC50 (second compound 1 µM): < 3.16 nM; IC50 (second compound 3.16 µM): < 3.16 nM; IC50 (second compound 10 µM): < 3.16 nM; viability, T/C (second compound 0.1 µM, first compound 0.00316 µM): 34.8%; viability, T/C (second compound 0.1 µM, first compound 0.01 µM): 14.2%; viability, T/C [1]: 3.61%; viability, T/C [2]: 1.15%; viability, T/C [3]: 1.37%; viability, T/C [4]: 1.37%; viability, T/C (second compound 0.316 µM, first compound 0.00316 µM): 34.8%; viability, T/C (second compound 0.316 µM, first compound 0.01 µM): 13.5%; viability, T/C [5]: 2.75%; viability, T/C [6]: 2.2%; viability, T/C [7]: 0.94%; viability, T/C [8]: 0.56%; viability, T/C (second compound 1 µM, first compound 0.00316 µM): 32.3%; viability, T/C (second compound 1 µM, first compound 0.01 µM): 10.1%; viability, T/C [9]: 3.17%; viability, T/C [10]: 2.28%; viability, T/C [11]: 1.22%; viability, T/C [12]: 0.43%; viability, T/C (second compound 3.16 µM, first compound 0.00316 µM): 31.1%; viability, T/C (second compound 3.16 µM, first compound 0.01 µM): 11%; viability, T/C [13]: 3.34%; viability, T/C [14]: 0.68%; viability, T/C [15]: 0.36%; viability, T/C [16]: 0.39%; viability, T/C (second compound 10 µM, first compound 0.00316 µM): 28.9%; viability, T/C (second compound 10 µM, first compound 0.01 µM): 6.64%; viability, T/C [17]: 2.27%; viability, T/C [18]: 0.74%; viability, T/C [19]: 0.42%; viability, T/C [20]: 0.45%

Q: With `Cc1nc(N2CCC3(CC2)COC(C)C3N)c(CO)nc1Sc1ccnc(N)c1Cl` (stereo not given) + Cc1c(S(C)(=O)=O)c(-c2cc(F)cc(N3CCN(c4ccc(NS(=O)(=O)c5ccc(NC(CCN6CCC(C(=O)OCCCP(=O)(O)O)CC6)CSc6ccccc6)c(S(=O)(=O)C(F)(F)F)c5)cc4)CC3)c2)c(-c2ccc(Cl)cc2)n1C(C)C as the compound, how does the IC50 (second compound 0.1 µM) read?
A: 1350 nM

Q: What about the IC50 (second compound 0.316 µM) of the same compound?
A: 1140 nM

Q: What about the IC50 (second compound 1 µM) of the same compound?
A: 1150 nM

Q: And the IC50 (second compound 3.16 µM)?
A: 930 nM

Q: What about the IC50 (second compound 10 µM) of the same compound?
A: 1170 nM

Q: What about the viability, T/C (second compound 0.1 µM, first compound 0.00949 µM) of the same compound?
A: 111%

Q: What about the viability, T/C (second compound 0.1 µM, first compound 0.03 µM) of the same compound?
A: 118%

Q: What about the viability, T/C (second compound 0.1 µM, first compound 0.0949 µM) of the same compound?
A: 96.2%

Q: And the viability, T/C (second compound 0.1 µM, first compound 0.3 µM)?
A: 87.8%

Q: What about the viability, T/C (second compound 0.1 µM, first compound 0.949 µM) of the same compound?
A: 60.1%

Q: What about the viability, T/C (second compound 0.1 µM, first compound 3 µM) of the same compound?
A: 26.3%

Q: What about the viability, T/C (second compound 0.316 µM, first compound 0.00949 µM) of the same compound?
A: 93.4%

Q: And the viability, T/C (second compound 0.316 µM, first compound 0.03 µM)?
A: 102%

Q: What about the viability, T/C (second compound 0.316 µM, first compound 0.0949 µM) of the same compound?
A: 109%

Q: What about the viability, T/C (second compound 0.316 µM, first compound 0.3 µM) of the same compound?
A: 93.8%

Q: And the viability, T/C (second compound 0.316 µM, first compound 0.949 µM)?
A: 55.2%

Q: And the viability, T/C (second compound 0.316 µM, first compound 3 µM)?
A: 24%

Q: What about the viability, T/C (second compound 1 µM, first compound 0.00949 µM) of the same compound?
A: 93.1%

Q: And the viability, T/C (second compound 1 µM, first compound 0.03 µM)?
A: 97.9%

Q: And the viability, T/C (second compound 1 µM, first compound 0.0949 µM)?
A: 98.1%

Q: What about the viability, T/C (second compound 1 µM, first compound 0.3 µM) of the same compound?
A: 87%

Q: What about the viability, T/C (second compound 1 µM, first compound 0.949 µM) of the same compound?
A: 55.4%

Q: What about the viability, T/C (second compound 1 µM, first compound 3 µM) of the same compound?
A: 24%

Q: What about the viability, T/C (second compound 3.16 µM, first compound 0.00949 µM) of the same compound?
A: 93.9%

Q: What about the viability, T/C (second compound 3.16 µM, first compound 0.03 µM) of the same compound?
A: 97.8%

Q: What about the viability, T/C (second compound 3.16 µM, first compound 0.0949 µM) of the same compound?
A: 103%

Q: And the viability, T/C (second compound 3.16 µM, first compound 0.3 µM)?
A: 84.9%

Q: What about the viability, T/C (second compound 3.16 µM, first compound 0.949 µM) of the same compound?
A: 49.9%

Q: And the viability, T/C (second compound 3.16 µM, first compound 3 µM)?
A: 22.9%

Q: And the viability, T/C (second compound 10 µM, first compound 0.00949 µM)?
A: 84.7%

Q: And the viability, T/C (second compound 10 µM, first compound 0.03 µM)?
A: 93.7%

Q: And the viability, T/C (second compound 10 µM, first compound 0.0949 µM)?
A: 88.5%

Q: And the viability, T/C (second compound 10 µM, first compound 0.3 µM)?
A: 78%

Q: What about the viability, T/C (second compound 10 µM, first compound 0.949 µM) of the same compound?
A: 55.9%

Q: What about the viability, T/C (second compound 10 µM, first compound 3 µM) of the same compound?
A: 24.7%
